Assays:
TRa2 = assay: Glycosyl donor selectivity of TRa2; format: biochemical, Trichoderma viride; conditions: under the conditions shown in the Example section
Excerpt: Moreover, this enzyme is a glycosyltransferase capable of producing not only sugars composed of one or two glucose molecules, but also glycosides whose sugar chain length is three (G3) or more glucose molecules.

[1] = Heat stability of glycoside (% remaining, HPLC); format: physicochemical; conditions: 100 μM in 10 mM potassium phosphate buffer pH 7.0, 4° C. to 100° C., 0 to 4 hours
Protocol: After 10 mM potassium phosphate buffer (pH 7.0, 30 μl) containing 100 μM (+)-catechin or 4′-O-α-D-glucopyranosyl-(+)-catechin was treated at different temperatures ranging from 4° C. to 100° C. for 0 to 4 hours, each sample was transferred on ice and mixed with 0.1% TFA (60 μl), followed by HPLC analysis in the same manner as shown in Example 1.

[2] = Solubility in water (HPLC quantification of supernatant); format: physicochemical; conditions: added to water at 10 to 450 mg/ml, vigorous stirring, centrifugation

| Structure (SMILES) | use as glycosyl donor by TRa2 (TRa2) | further results |
| --- | --- | --- |
| OC[C@H]1O[C@H](O[C@H]2[C@H](O)[C@@H](O)C(O)O[C@@H]2CO)[C@H](O)[C@@H](O)[C@@H]1O (mixture of isomers) [maltose] | does not target |  |
| OC[C@H]1O[C@H](Oc2ccc([C@H]3Oc4cc(O)cc(O)c4C[C@@H]3O)cc2O)[C@H](O)[C@@H](O)[C@@H]1O [4′-O-α-D-glucopyranosyl-(+)-catechin] |  | heat stability (% remaining) compared with catechin [1]: more stable against heat than catechin |
| OC[C@H]1O[C@H](Oc2cc(O)cc3c2C[C@H](O)[C@@H](c2ccc(O)c(O)c2)O3)[C@H](O)[C@@H](O)[C@@H]1O [5-O-α-D-glucopyranosyl-(+)-catechin] |  | solubility in water relative to (+)-catechin [2]: at least 40 fold |
| Oc1cc(O)c2c(c1)O[C@H](c1ccc(O)c(O)c1)[C@@H](O)C2 [(+)-catechin] |  | solubility in water [2]: substantially insoluble in water |
| O=C[C@H](O)[C@@H](O)[C@H](O[C@@H]1O[C@H](CO)[C@@H](O)[C@H](O)[C@H]1O)[C@H](O)CO [cellobiose] | does not target |  |
| OC[C@H]1O[C@@H]2O[C@H]3[C@H](O)[C@@H](O)[C@@H](O[C@H]4[C@H](O)[C@@H](O)[C@@H](O[C@H]5[C@H](O)[C@@H](O)[C@@H](O[C@H]6[C@H](O)[C@@H](O)[C@@H](O[C@H]7[C@H](O)[C@@H](O)[C@@H](O[C@H]1[C@H](O)[C@H]2O)O[C@@H]7CO)O[C@@H]6CO)O[C@@H]5CO)O[C@@H]4CO)O[C@@H]3CO [α-cyclodextrin] | does not target |  |
| OC[C@H]1O[C@@H]2O[C@H]3[C@H](O)[C@@H](O)[C@@H](O[C@H]4[C@H](O)[C@@H](O)[C@@H](O[C@H]5[C@H](O)[C@@H](O)[C@@H](O[C@H]6[C@H](O)[C@@H](O)[C@@H](O[C@H]7[C@H](O)[C@@H](O)[C@@H](O[C@H]8[C@H](O)[C@@H](O)[C@@H](O[C@H]1[C@H](O)[C@H]2O)O[C@@H]8CO)O[C@@H]7CO)O[C@@H]6CO)O[C@@H]5CO)O[C@@H]4CO)O[C@@H]3CO [β-cyclodextrin] | does not target |  |

— patent US8383384B2, “Polypeptide having glycosylation activity on a flavonoid” (Suntory Holdings Limited, priority 2007, dated 2013)
